From the CheMixHub ionic liquid set

Assay: xn = mol fraction of the nth substance listed

CCCC[n+]1ccn(C)c1.F[B-](F)(F)F + CC(C)=O
Details | electrical conductivity [S/m] | viscosity [mPa·s]
296.15 K, 101 kPa, x2 = 0 | 0.35 | –
296.15 K, 101 kPa, x2 = 0.3019 | 2.03 | –
296.15 K, 101 kPa, x2 = 0.6252 | 2.89 | –
296.15 K, 101 kPa, x2 = 0.7956 | 3.5 | –
296.15 K, 101 kPa, x2 = 0.8537 | 3.61 | –
296.15 K, 101 kPa, x2 = 0.9008 | 3.71 | –
296.15 K, 101 kPa, x2 = 0.9396 | 2.92 | –
296.15 K, 101 kPa, x2 = 0.9722 | 1.66 | –
298.15 K, 101 kPa, x2 = 0 | 0.194 | 116
298.15 K, 101 kPa, x2 = 0.0973 | 0.311 | 78
298.15 K, 101 kPa, x2 = 0.1863 | 0.44 | 53.3
298.15 K, 101 kPa, x2 = 0.2878 | 0.623 | 34.2
298.15 K, 101 kPa, x2 = 0.3877 | 0.87 | 21.4
298.15 K, 101 kPa, x2 = 0.4853 | 1.18 | 12.9
298.15 K, 101 kPa, x2 = 0.5858 | 1.61 | 7.39
298.15 K, 101 kPa, x2 = 0.6762 | 1.98 | 4.24
298.15 K, 101 kPa, x2 = 0.8151 | 2.2 | 1.61
303.15 K, 100 kPa, x1 = 0.0999 | – | 0.726
303.15 K, 100 kPa, x1 = 0.2 | – | 1.48
303.15 K, 100 kPa, x1 = 0.3002 | – | 2.789
303.15 K, 100 kPa, x1 = 0.4003 | – | 4.968
303.15 K, 100 kPa, x1 = 0.4996 | – | 8.387
303.15 K, 100 kPa, x1 = 0.6008 | – | 14.14
303.15 K, 100 kPa, x1 = 0.7006 | – | 22.8
303.15 K, 100 kPa, x1 = 0.7995 | – | 35.07
303.15 K, 100 kPa, x1 = 0.9 | – | 54.72
303.15 K, 100 kPa, x1 = 1 | – | 85.4
313.15 K, 100 kPa, x1 = 0.0999 | – | 0.654
313.15 K, 100 kPa, x1 = 0.2 | – | 1.3
313.15 K, 100 kPa, x1 = 0.3002 | – | 2.394
313.15 K, 100 kPa, x1 = 0.4003 | – | 4.185
313.15 K, 100 kPa, x1 = 0.4996 | – | 6.706
313.15 K, 100 kPa, x1 = 0.6008 | – | 10.83
313.15 K, 100 kPa, x1 = 0.7006 | – | 16.72
313.15 K, 100 kPa, x1 = 0.7995 | – | 24.44
313.15 K, 100 kPa, x1 = 0.9 | – | 36.14
313.15 K, 100 kPa, x1 = 1 | – | 53.84
323.15 K, 100 kPa, x1 = 0.0999 | – | 0.595
323.15 K, 100 kPa, x1 = 0.2 | – | 1.171
323.15 K, 100 kPa, x1 = 0.3002 | – | 2.094
323.15 K, 100 kPa, x1 = 0.4003 | – | 3.567
323.15 K, 100 kPa, x1 = 0.4996 | – | 5.516
323.15 K, 100 kPa, x1 = 0.6008 | – | 8.67
323.15 K, 100 kPa, x1 = 0.7006 | – | 12.67
323.15 K, 100 kPa, x1 = 0.7995 | – | 17.99
323.15 K, 100 kPa, x1 = 0.9 | – | 25.35
323.15 K, 100 kPa, x1 = 1 | – | 36.27

CCCC[n+]1ccn(C)c1.F[B-](F)(F)F + CC(C)C[C@H](N)C(=O)O + O
viscosity [mPa·s], 100 kPa
Details | 293.15 K | 298.15 K | 303.15 K | 308.15 K | 313.15 K | 318.15 K
x2 = 0, x1 = 0.0003729 | 1.03 | 0.917 | 0.835 | 0.751 | 0.693 | 0.638
x2 = 0, x1 = 0.0007257 | 1.062 | 0.951 | 0.868 | 0.789 | 0.736 | 0.681
x2 = 0, x1 = 0.0011 | 1.093 | 0.983 | 0.904 | 0.83 | 0.779 | 0.725

CCCC[n+]1ccn(C)c1.F[B-](F)(F)F + CC(C)O
viscosity [mPa·s], 101 kPa
Details | 293.15 K | 298.15 K | 303.15 K | 308.15 K | 313.15 K | 318.15 K | 323.15 K
x1 = 0.0804 | 4.9 | 4.2 | 3.89 | 3.46 | 2.84 | 2.16 | 1.48
x1 = 0.1585 | 7.6 | 7 | 6.52 | 5.78 | 4.67 | 3.41 | 2.15
x1 = 0.2402 | 11.4 | 10.3 | 9.5 | 8.4 | 6.8 | 4.9 | 3.01
x1 = 0.3505 | 16 | 15 | 14 | 12.4 | 9.9 | 7.1 | 4.34
x1 = 0.4422 | 20.7 | 19.7 | 18.2 | 16 | 12.9 | 9.3 | 5.78
x1 = 0.5619 | 28.4 | 26.7 | 24.9 | 21.9 | 17.6 | 12.9 | 8.3
x1 = 0.6491 | 36.8 | 34.3 | 31.3 | 27.6 | 22.2 | 16.5 | 10.8
x1 = 0.7409 | 48.5 | 44.8 | 40 | 34.6 | 27.9 | 20.9 | 14.1
x1 = 0.8458 | 69 | 61.6 | 53.7 | 45.8 | 36.8 | 27.8 | 19.3
x1 = 0.9327 | 95 | 82 | 70 | 58.8 | 47.1 | 35.9 | 25.4
x1 = 1 | 125 | 105 | 88 | 72 | 57.7 | 44 | 31.6

CCCC[n+]1ccn(C)c1.F[B-](F)(F)F + CCC(C)=O
100 kPa, x1 = 1
Details | viscosity [mPa·s]
303.15 K | 85.4
313.15 K | 53.84
323.15 K | 36.27
333.15 K | 25.46

CC[n+]1ccn(C)c1.N#C[N-]C#N + CCC(C)O
viscosity [mPa·s], 100 kPa
Details | x1 = 0.1023 | x1 = 0.2005 | x1 = 0.3015 | x1 = 0.4018 | x1 = 0.5032 | x1 = 0.6026 | x1 = 0.7026 | x1 = 0.8032 | x1 = 0.9029 | x1 = 1
298.15 K | 3.05 | 3.17 | 3.48 | 3.86 | 4.53 | 5.4 | 6.7 | 8.3 | 10.3 | 13.1
303.15 K | 2.59 | 2.71 | 3.02 | 3.41 | 4.07 | 4.95 | 6.1 | 7.5 | 9.6 | 11.8
308.15 K | 2.25 | 2.37 | 2.68 | 3.06 | 3.72 | 4.63 | 5.6 | 7 | 8.9 | 10.9
313.15 K | 2.01 | 2.13 | 2.41 | 2.69 | 3.36 | 4.19 | 5.1 | 6.4 | 7.8 | 9
318.15 K | 1.83 | 1.95 | 2.26 | 2.54 | 3.06 | 3.79 | 4.59 | 5.8 | 6.9 | 8.1
323.15 K | 1.67 | 1.79 | 2.05 | 2.26 | 2.83 | 3.51 | 4.18 | 5 | 6.2 | 7.3

CCCCCCCCO + CCCCCCCC(=O)[O-].c1c[nH+]c[nH]1
Details | viscosity [mPa·s]
293.15 K, 101.3 kPa, x1 = 1 | 9.18
